Test results taken from patent US20180343865A1, “HERBICIDAL COMPOSITIONS COMPRISING ISOXAZOLO[5,4-B]PYRIDINES” (BASF SE, priority 2015, published 2018).
Where “and” joins values, the source holds several entries; their conditions need not be identical. Equal entries are not always repeated. Where two headings read alike, the source gives them in different places.

What was measured:
Format in all cases: in vivo
[1] = test system: Amaranthus palmeri; experiment: Greenhouse postemergence herbicidal activity on AMAPA, 20 DAT
Description: (§1) For the post emergence treatment, the plants were first grown to the 2 leaf station (GS 12) and applied at GS 12-19 depending on the species. The herbicidal compositions were suspended or emulsified in water as distribution medium and sprayed using finely distributing nozzles.
(§2) The plants have been cultivated due to their individual requirements at 10 to 25° C. and. 20 to 35° C. The plants were irrigated due to their necessity.
(§3) The respective stated components A), were formulated as a 5% by weight strength emulsion concentrate containing wettol EM 31 20% and Cyclohexanone 80%. The respective stated components B), were formulated as either emulsifiable concentrates (EC), soluble liquids (SL), suspension concentrates (SC) or soluble granules (SG) as indicated in the table below. Component A, component B and the solvent system are introduced into the spray liquor used for applying the active compound. In the examples, the solvent used was water containing 1% Dash (Agnique ME 181 37.5%, Lutensit A-EP 22.5%, and Oleic Acid 5%) and 2% ammonium suflate.
(§4) In the following experiments, the herbicidal activity for the individual herbicide compounds (solo and mixture applications), the herbicidal succession was assessed 20 days after treatment (DAT). The evaluation for the damage on undesired weeds caused by the chemical compositions was carried out using a scale from 0 to 100%, compared to the untreated control plants. Here, 0 means no damage and 100 means complete destruction of the plants. The plants used in the greenhouse experiments belonged to the following species:
(§5) The value E, which corresponds to the effect (in %) that is to be expected if the activity of the individual compounds is additive, was calculated using the method of S. R. Colby (1967) “Calculating synergistic and antagonistic responses of herbicide combinations”, Weeds 15, p. 22 ff. Colby calculation for 2 way mixtures:
(§6) where: • X=effect in percent using herbicide A at an application rate a; • Y=effect in percent using herbicide B at an application rate b; • E=expected effect (in %) of A+B at application rates a+b
(§7) If the value observed in this manner is higher than the value E calculated according to Colby, a synergistic effect is present.

[2] = test system: APESV; experiment: Greenhouse postemergence herbicidal activity on APESV, 20 DAT; conditions: post-emergence, Table 8, read-out: % activity, solo application (I.A)
[3] = test system: Setaria viridis; experiment: Greenhouse postemergence herbicidal activity on SETVI, 20 DAT; conditions: post-emergence, 62.5 gai/ha, Table 8, read-out: % activity, solo application (I.A)
Description: as §1, §2
The respective stated components A), were formulated as a 5% by weight strength emulsion concentrate containing wettol EM 31 20% and Cyclohexanone 80%. The respective stated components B), were formulated as either emulsifiable concentrates (EC), soluble liquids (SL), suspension concentrates (SC) or soluble granules (SG) as indicated in the table below. […]
In the following experiments, the herbicidal activity for the individual herbicide compounds (solo and mixture applications), the herbicidal succession was assessed 20 days after treatment (DAT). […]
The value E, which corresponds to the effect (in %) that is to be expected if the activity of the individual compounds is additive, was calculated using the method of S. R. Colby (1967) “Calculating synergistic and antagonistic responses of herbicide combinations”, Weeds 15, p. […]
as §7

[4] = test system: Sinapis arvensis; experiment: Greenhouse postemergence herbicidal activity on SINAR, 20 DAT; conditions: Mutarda arvensis, post-emergence, 480 h, read-out: % activity, solo (I.A)
Description: as §1, §2, §3, §4, §5, §6, §7

[5] = test system: Chenopodium album; experiment: Greenhouse postemergence herbicidal activity on CHEAL, 20 DAT; conditions: for inhibition at 15.6 g/ha: 15.6 gai/ha; for inhibition at 125 g/ha: 125 gai/ha; for inhibition at 250 g/ha: 250 gai/ha
Description: as §1, §2, §3, §4, §5, §6, §7

[6] = test system: Polygonum aviculare; experiment: Greenhouse postemergence herbicidal activity on POLAV, 20 DAT; conditions: Polygonum aviculare, post-emergence, 480 h, read-out: % activity, solo (I.A)
Description: as §1, §2, §3, §4, §5, §6, §7

[7] = test system: AVEFA; experiment: Greenhouse postemergence herbicidal activity on AVEFA, 20 DAT; conditions: Avena fatua, post-emergence, Table 8, read-out: % activity, solo application (I.A)
[8] = test system: Polygonum persicaria; experiment: Greenhouse postemergence herbicidal activity on POLPE, 20 DAT; conditions: Persicaria maculosa, post-emergence, 480 h, POLPE, postemergence, 20 DAT, read-out: % activity, solo (I.A)
Description: as §1, §2, §3, §4, §5, §6, §7

[9] = test system: Conyza canadiensis; experiment: Greenhouse postemergence herbicidal activity on ERICA, 20 DAT; conditions: Conyza, post-emergence, ERICA, postemergence; for inhibition at 31.25 g/ha: 31.25 gai/ha
Description: as §1, §2, §3, §4, §5, §6, §7

[10] = test system: Ambrosia elatior; experiment: Greenhouse postemergence herbicidal activity on AMBEL, 20 DAT; conditions: AMBEL, postemergence, 20 DAT
Description: as §1, §2, §3, §4, §5, §6, §7

[11] = Chenopodium album, post-emergence, Table 6, read-out: % activity, solo application (I.A)
[12] = Chenopodium album, post-emergence, 480 h, 20 DAT, read-out: % activity, solo (I.A)

For `CC(C)c1noc2nc(C3CC3)cc(C(=O)O)c12` [(I.A)], which “% activity, solo (I.A)” value ([1]; 62.5 gai/ha) is on record?
Its value is 89%.

What about the inhibition at 15.6 g/ha ([1]; Amaranthus palmeri, post-emergence, 480 h, 15.6 gai/ha, read-out: % activity, solo (I.A)) of the same molecule?
The inhibition at 15.6 g/ha was 5%.

And the inhibition at 31.25 g/ha ([1]; Amaranthus palmeri, post-emergence, 480 h, 31.25 gai/ha, read-out: % activity, solo (I.A))?
Its inhibition at 31.25 g/ha is 80%.

And the inhibition at 62.5 g/ha ([1]; Amaranthus palmeri, post-emergence, 480 h, 62.5 gai/ha, read-out: % activity, solo (I.A))?
The inhibition at 62.5 g/ha was 80%.

What about the inhibition at 15.6 g/ha ([2]; 15.6 gai/ha) of the same molecule?
The inhibition at 15.6 g/ha was 0%.

And the inhibition at 31.25 g/ha ([2]; 31.25 gai/ha)?
Its inhibition at 31.25 g/ha is 0%.

What about the inhibition at 62.5 g/ha ([2]; 62.5 gai/ha) of the same molecule?
The inhibition at 62.5 g/ha was 0%.

And the inhibition at 62.5 g/ha [3]?
Its inhibition at 62.5 g/ha is 30%.

What about the inhibition at 15.6 g/ha ([4]; 15.6 gai/ha) of the same molecule?
Its inhibition at 15.6 g/ha is 95%.

And the inhibition at 31.25 g/ha ([4]; 31.25 gai/ha)?
The inhibition at 31.25 g/ha was 78%.

And the inhibition at 62.5 g/ha ([4]; 62.5 gai/ha)?
The inhibition at 62.5 g/ha was 83%.

And the inhibition at 125 g/ha ([4]; 125 gai/ha)?
The inhibition at 125 g/ha was 90%.

And the “% activity, solo (I.A)” value ([5]; 62.5 gai/ha, 20 DAT)?
Its value is 65% and 93%.

And the inhibition at 7.8 g/ha ([5]; Chenopodium album, post-emergence, 7.8 gai/ha, Table 8, read-out: % activity, solo application (I.A))?
Its inhibition at 7.8 g/ha is 50%.

And the inhibition at 15.6 g/ha ([5]; Chenopodium album, post-emergence, Table 8, read-out: % activity, solo application (I.A))?
The inhibition at 15.6 g/ha was 85%.

And the inhibition at 31.25 g/ha ([5]; Chenopodium album, post-emergence, 31.25 gai/ha, Table 6, read-out: % activity, solo application (I.A))?
Its inhibition at 31.25 g/ha is 58%.

What about the inhibition at 62.5 g/ha ([5]; Chenopodium album, post-emergence, 62.5 gai/ha, Table 6, read-out: % activity, solo application (I.A)) of the same molecule?
Its inhibition at 62.5 g/ha is 78%.

What about the inhibition at 125 g/ha [5, 11] of the same molecule?
The inhibition at 125 g/ha was 83%.

What about the inhibition at 250 g/ha [5, 11] of the same molecule?
The inhibition at 250 g/ha was 98%.

What about the inhibition at 15.6 g/ha [5, 12] of the same molecule?
The inhibition at 15.6 g/ha was 10%.

What about the inhibition at 125 g/ha [5, 12] of the same molecule?
Its inhibition at 125 g/ha is 83%.

What about the inhibition at 250 g/ha [5, 12] of the same molecule?
Its inhibition at 250 g/ha is 98%.

And the inhibition at 15.6 g/ha ([6]; 15.6 gai/ha)?
The inhibition at 15.6 g/ha was 10%.

What about the inhibition at 31.25 g/ha ([6]; 31.25 gai/ha) of the same molecule?
Its inhibition at 31.25 g/ha is 35%.

And the inhibition at 62.5 g/ha ([6]; 62.5 gai/ha)?
Its inhibition at 62.5 g/ha is 50%.

What about the inhibition at 125 g/ha ([6]; 125 gai/ha) of the same molecule?
Its inhibition at 125 g/ha is 90%.

And the inhibition at 15.6 g/ha ([7]; 15.6 gai/ha)?
The inhibition at 15.6 g/ha was 0%.

What about the inhibition at 62.5 g/ha ([7]; 62.5 gai/ha) of the same molecule?
The inhibition at 62.5 g/ha was 20%.

And the inhibition at 15.6 g/ha ([8]; 15.6 gai/ha)?
The inhibition at 15.6 g/ha was 70%.

What about the inhibition at 31.25 g/ha ([8]; 31.25 gai/ha) of the same molecule?
The inhibition at 31.25 g/ha was 80%.

And the inhibition at 15.6 g/ha ([9]; 480 h, 15.6 gai/ha, 20 DAT, read-out: % activity, solo (I.A))?
The inhibition at 15.6 g/ha was 40%.

What about the inhibition at 31.25 g/ha ([9]; 480 h, 20 DAT, read-out: % activity, solo (I.A)) of the same molecule?
The inhibition at 31.25 g/ha was 40%.

And the inhibition at 62.5 g/ha ([9]; 480 h, 62.5 gai/ha, 20 DAT, read-out: % activity, solo (I.A))?
Its inhibition at 62.5 g/ha is 90%.

What about the inhibition at 31.25 g/ha ([9]; Table 8, read-out: % activity, solo application (I.A)) of the same molecule?
Its inhibition at 31.25 g/ha is 35%.

What about the “% activity, solo (I.A)” value ([10]; 31.25 gai/ha) of the same molecule?
The value was 50% and 25%.

What about the inhibition at 15.6 g/ha ([10]; Ambrosia artemisiifolia, post-emergence, 480 h, 15.6 gai/ha, read-out: % activity, solo (I.A)) of the same molecule?
The inhibition at 15.6 g/ha was 0%.

What about the inhibition at 62.5 g/ha ([10]; Ambrosia artemisiifolia, post-emergence, 480 h, 62.5 gai/ha, read-out: % activity, solo (I.A)) of the same molecule?
The inhibition at 62.5 g/ha was 70%.
